Measured values: the NIST ThermoML archive (doi:10.1016/j.jct.2007.08.005)

What was measured:
[1] = 308.15 K, 101.33 kPa, Liquid; for speed of sound: Sing-around technique in a fixed-path interferometer; for mass density: Vibrating tube method
[2] = xn = mol fraction of the nth substance listed; details: 308.15 K, 101 kPa, Liquid; for excess molar volume: Direct dilatometry; for speed of sound: Sing-around technique in a fixed-path interferometer

OCCCCCO [1,5-pentanediol]
[1]
Details | mass density [kg/m3] | speed of sound [m/s] | viscosity [mPa·s]
– | 974.3 | 1566.1 | 64

OCCCCCO [1,5-pentanediol] + O=C1CCCN1
[2]
Details | excess molar volume [m3/mol] | speed of sound [m/s] | viscosity [mPa·s]
x1 = 0.0022 | 1e-09 | – | –
x1 = 0.009 | 3e-09 | – | –
x1 = 0.0129 | 5e-09 | – | –
x1 = 0.0168 | 6e-09 | – | –
x1 = 0.0269 | 1e-08 | – | –
x1 = 0.0298 | – | 1597.5 | 9.401
x1 = 0.0326 | 1.5e-08 | – | –
x1 = 0.0454 | 1.7e-08 | – | –
x1 = 0.0514 | – | 1595.7 | 9.774
x1 = 0.0619 | 2.7e-08 | – | –
x1 = 0.0915 | 3.4e-08 | – | –
x1 = 0.1017 | – | 1591.8 | 10.74
x1 = 0.1149 | 4e-08 | – | –
x1 = 0.1375 | 4.4e-08 | – | –
x1 = 0.1536 | – | 1588.7 | 11.8
x1 = 0.1895 | 5.2e-08 | – | –
x1 = 0.2008 | – | 1586.9 | 12.89
x1 = 0.2539 | 5.9e-08 | – | –
x1 = 0.293 | 6.4e-08 | – | –
x1 = 0.2942 | – | 1583.5 | 15.32
x1 = 0.3268 | 6.7e-08 | – | –
x1 = 0.3769 | 7e-08 | – | –
x1 = 0.3886 | – | 1580.9 | 18.07
x1 = 0.4209 | 7e-08 | – | –
x1 = 0.4564 | 7.1e-08 | – | –
x1 = 0.479 | – | 1578.8 | 21.15
x1 = 0.5091 | 7e-08 | – | –
x1 = 0.5407 | 6.9e-08 | – | –
x1 = 0.5779 | 6.6e-08 | – | –
x1 = 0.582 | – | 1577.1 | 24.71
x1 = 0.601 | 6.1e-08 | – | –
x1 = 0.6363 | 5.6e-08 | – | –
x1 = 0.6673 | 5.3e-08 | – | –
x1 = 0.6827 | – | 1575.3 | 29.13
x1 = 0.7035 | 4.7e-08 | – | –
x1 = 0.7347 | 4.2e-08 | – | –
x1 = 0.7812 | – | 1573 | 36.21
x1 = 0.7879 | 3.3e-08 | – | –
x1 = 0.822 | 2.8e-08 | – | –
x1 = 0.8319 | – | 1571.6 | 41.2
x1 = 0.8461 | 2.6e-08 | – | –
x1 = 0.8694 | 2.3e-08 | – | –
x1 = 0.8947 | 1.8e-08 | – | –
x1 = 0.9095 | – | 1569.4 | 50.56
x1 = 0.9143 | 1.3e-08 | – | –
x1 = 0.9392 | – | 1568.6 | 54.65
x1 = 0.9428 | 1.1e-08 | – | –
x1 = 0.9583 | 7e-09 | – | –
x1 = 0.9749 | – | 1567.3 | 59.95
x1 = 0.9783 | 3e-09 | – | –

OCCO [1,2-ethanediol]
[1]
Details | speed of sound [m/s] | viscosity [mPa·s]
– | 1633.4 | 11.35

OCCCO [propan-1,3-diol]
[1]
Details | mass density [kg/m3] | speed of sound [m/s] | viscosity [mPa·s]
– | 1042.7 | 1604.5 | 26.44

O=C1CCCN1 [2-pyrrolidinone]
[1]
Details | mass density [kg/m3] | speed of sound [m/s] | viscosity [mPa·s]
– | 1097.14 | 1600 | 8.922
